US20260078099A1, “COMPOUND, PREPARATION METHOD THEREOF, AND LIPID NANOPARTICLE AND PHARMACEUTICAL COMPOSITION” (priority 2023, published 2026)

How the values were obtained:
mice = test: Bioluminescent study, intramuscular injection of F-luc mRNA LNPs; format: in vivo; settings: F-luc luminescence flux normalized to MC3; 0.25 mg/kg intramuscular, mice n=3, 6-hour time point
Description: The efficacy of nanoparticle compositions was evaluated using bioluminescent studies. A dose of 0.25 mg/kg (mpk) of the formulation was administered to mice (n=3) via intramuscular injection, and bioluminescence was measured at a 6-hour time point. The test lipid nanoparticles from the MC3 formulation were evaluated, and in some cases, controls (e.g., PBS controls) were assessed for comparison.
The characteristics of the test lipid nanoparticles measured from the test groups, including F-luc luminescence intensity, are listed in the table below.

[1] = LNP encapsulation efficiency (Quant-it Ribogreen); format: physicochemical; settings: mRNA LNP, cationic lipid/DSPC/cholesterol/PEG-lipid 50:10:38.5:1.5
Excerpt: Encapsulation Efficiency: The encapsulation efficiency of a therapeutic and/or prophylactic agent refers to the amount of the therapeutic and/or prophylactic agent encapsulated within or otherwise associated with the nanoparticle composition relative to the initial amount provided during preparation. Encapsulation efficiency is desirably high (such as close to 100%). Encapsulation efficiency can be measured, for example, by comparing the amount of therapeutic and/or prophylactic agent in a solution containing the nanoparticle composition before and after disruption of the nanoparticle composition using one or more organic solvents or detergents. Fluorescence can be used to measure the amount of free therapeutic and/or prophylactic agent (e.g., RNA) in solution. For the nanoparticle compositions described herein, the encapsulation efficiency of the therapeutic and/or prophylactic agent may be at least 50%, such as 50%, 55%, 60%, 65%, 70%, 75%, 80%, 85%, 90%, 91%, 92%, 93%, 94%, 95%, 96%, 97%, 98%, 99%, or 100%. In some embodiments, the encapsulation efficiency may be at least 80%. In certain embodiments, the encapsulation efficiency may be at least 90%.
(§1) In summary, the cationic lipid described herein, DSPC, cholesterol, and PEG-lipid were dissolved in ethanol at a molar ratio of 50:10:38.5:1.5 and diluted in 10 mM to 50 mM citrate buffer at pH 4 with mRNA. Using a microfluidic device, the lipid ethanol solution was mixed with mRNA aqueous solution at a volume ratio of 1:3 and a total flow rate ranging from 6-30 mL/min, preparing LNPs with a total lipid to mRNA weight ratio of approximately 10:1 to 30:1. Ethanol was removed by dialysis and replaced with PBS. Finally, the lipid nanoparticles were filtered through a 0.22 μm sterile filter.
(§2) The size of lipid nanoparticles was measured by dynamic light scattering using a Malvern Zetasizer Nano ZS (Malvern, UK) with a 90° scattering detection mode. The encapsulation efficiency of lipid nanoparticles was determined using the Quant-it Ribogreen RNA Quantitation Kit (Thermo Fisher Scientific, UK) according to the manufacturer's instructions. The apparent pKa of LNP formulations correlates with the delivery efficiency of nucleic acids by LNPs in vivo. The apparent pKa ranges from approximately 5 to 7. An analysis based on fluorescence from 2-(p-tolylamino)-6-naphthalenesulfonic acid (TNS) was used to determine the apparent pKa of formulations. As described above, LNP formulations containing cationic lipid/DSPC/cholesterol/DMG-PEG (50/10/38.5/1.5 mol %) in PBS were prepared. A 300 μM stock solution of TNS in distilled water was prepared. LNP formulations were diluted to 0.1 mg/mL total lipid in 3 mL of buffer solution containing 50 mM sodium citrate, 50 mM sodium phosphate, 50 mM sodium borate, and 30 mM sodium chloride (pH ranged from 3 to 9). […] S-shaped curve best-fit analysis was applied to the fluorescence data, and the pKa value was measured as the pH value producing half-maximal fluorescence intensity.

[2] = LNP size and PDI by dynamic light scattering; format: physicochemical; settings: mRNA LNP, cationic lipid/DSPC/cholesterol/PEG-lipid 50:10:38.5:1.5
Description: as §1, §2

LNP zeta potential = format: physicochemical; settings: mRNA LNP
Excerpt: Nanoparticle compositions can be characterized by various methods. For example, the morphology and size distribution of nanoparticle compositions can be examined using microscopy (e.g., transmission electron microscopy or scanning electron microscopy). The zeta potential can be measured using dynamic light scattering or potentiometric titration. Dynamic light scattering can also be used to determine particle size. Instruments such as the Zetasizer Nano ZS (Malvern Instruments Ltd., Malvern, Worcestershire, UK) can also be used to measure multiple characteristics of nanoparticle compositions, such as particle size, polydispersity index, and zeta potential.
[…]: The zeta potential of the nanoparticle composition can indicate the electrophoretic potential of the composition. For example, zeta potential may describe the surface charge of the nanoparticle composition. Nanoparticle compositions with relatively low positive or negative charges are generally desirable, as materials with higher charges may interact undesirably with cells, tissues, and other components in the body. In some embodiments, the zeta potential of the nanoparticle composition may be about −10 mV to about +20 mV, about −10 mV to about +15 mV, about −10 mV to about +10 mV, about −10 mV to about +5 mV, about −10 mV to about 0 mV, about −10 mV to about −5 mV, about −5 mV to about +20 mV, about −5 mV to about +15 mV, about −5 mV to about +10 mV, about −5 mV to about +5 mV, about −5 mV to about 0 mV, about 0 mV to about +20 mV, about 0 mV to about +15 mV, about 0 mV to about +10 mV, about 0 mV to about +5 mV, about +5 mV to about +20 mV, about +5 mV to about +15 mV, or about +5 mV to about +10 mV.

Encapsulation efficiency (%) [1] | PDI [2] | Size (nm) [2] | Zeta potential (mV) (LNP zeta potential) | Compound | Relative Total flux (mice)
 |  |  |  | CCCCCCCC(C(=O)NCCCCCCCCCC(=O)OC(CCCCCC)CCCCCC)N(CCN(C)CCO)C(=O)CCCCCCCCCC(=O)OC(CCCCCC)CCCCCC (stereo not shown) [Compound B9] | A (A: ≥2)
93.95% | 0.214 | 68.16 nm | 12.50 mV | CCCCCCCC(C(=O)NCCCCCCCCCC(=O)OC(CCCCCC)CCCCCC)N(COC(=O)CCN(C)C)C(=O)CCCCCCCCCC(=O)OC(CCCCCC)CCCCCC (stereo not shown) [Compound B23] | B (B: ≥1 and <2)
 |  |  |  | CCCCC/C=C\C/C=C\CCCCCCCC(=O)N(CCCCN1CCCC1)C(CCCCCCCCCCC)C(=O)NCCCCCCCCCCCCCC (stereo not shown) [Compound A24] | C (C: ≥0.1 and <1)
95.23% | 0.11 | 94.21 nm | 2.08 mV | CCCCCCCCNC(=O)C(CCCCCCCC)N(CCC1CCCN1C)C(=O)CCCCCCC(=O)OC(CCCCCCCC)CCCCCCCC (stereo not shown) [Compound A34] | A (A: ≥2)
94.69% | 0.09 | 94.71 nm | −1.24 mV | CCCCCCCCNC(=O)C(CCCCCC)N(CCCN(C)C)C(=O)CCCCCCC(=O)OC(CCCCCCCC)CCCCCCCC (stereo not shown) [Compound A29] | A (A: ≥2)
85.93% | 0.15 | 88.05 nm | −0.41 mV | CCCCCCCCNC(=O)C(CCCCC)N(CCCN(C)C)C(=O)CCCCCCC(=O)OC(CCCCCCCC)CCCCCCCC (stereo not shown) [Compound A28] | A (A: ≥2)
 |  |  |  | CCCCCCCCC(CCCCCC)COC(=O)CCCCCNC(=O)C(CCCCC)N(CCCN(C)C)C(=O)CCCCCC(=O)OCC(CCCCCCCC)CCCCCCCC (stereo not shown) [Compound A43] | A (A: ≥2)
95.33% | 0.11 | 121.37 nm | −3.43 mV | CCCCCCCCNC(=O)C(CCCC)N(CCCN(C)C)C(=O)CCCCCCC(=O)OC(CCCCCCCC)CCCCCCCC (stereo not shown) [Compound A27] | A (A: ≥2)
69.71% | 0.185 | 104.5 nm | −16.71 mV | CCCCCCC(CCCCCC)OC(=O)CCCCCCCCCNC(=O)C(CCCCCCCCCC(=O)OC(CCCCCC)CCCCCC)N(CCN1CCN(CCO)CC1)C(=O)CCN1CCN(CCO)CC1 (stereo not shown) [Compound E10] | C (C: ≥0.1 and <1)
 |  |  |  | CCCCCCCCC(C(=O)NCCCCCCCCCC(=O)OCCCCCC)N(CCCN(CO)CO)C(=O)CCCCCCCCCC(=O)OC(CCCCCC)CCCCCC (stereo not shown) [Compound B1] | A (A: ≥2)
94.62% | 0.593 | 57.19 nm | 5.42 mV | CCCCCCCC(C(=O)NCCCCCCCCCC(=O)OC(CCCCCC)CCCCCC)N(CCN1CCN(CCO)CC1)C(=O)CCCCCCCCCC(=O)OC(CCCCCC)CCCCCC (stereo not shown) [Compound B16] | A (A: ≥2)
 |  |  |  | CCCCCCCCNC(=O)C(CCCCCCCC)N(CCCN(CC)CCO)C(=O)CCCCCCC(=O)OC(CCCCCCCC)CCCCCCCC (stereo not shown) [Compound B28] | A (A: ≥2)
 |  |  |  | CCCCCCCCCCCCCCNC(=O)C(CCCCCCCCCCC)N(CCCCN1CCCC1)C(=O)CCCCCCC(=O)OC(CCCCCCCC)CCCCCCCC (stereo not shown) [Compound A25] | D (D: <0.1.)
 |  |  |  | CCCCCCCCC(CCCCCCCC)OC(=O)CCCCCCC(=O)N(CCCN(C)C)C(CCCCCCCC)C(=O)NCCCCCC(=O)OCCC12CC3CC(CC(C3)C1)C2 (stereo not shown) [Compound A47] | A (A: ≥2)
 |  |  |  | CCCCCCCCNC(=O)C(CCCCCCCC)N(CCN(CC)CC)C(=O)CCCCCCC(=O)OC(CCCCCCCC)CCCCCCCC (stereo not shown) [Compound A38] | A (A: ≥2)
 |  |  |  | CCCCCCCCNC(=O)C(CCCCCCCC)N(CCCN(C)CCCO)C(=O)CCCCCCC(=O)OC(CCCCCCCC)CCCCCCCC (stereo not shown) [Compound B27] | B (B: ≥1 and <2)
 |  |  |  | CCCCC/C=C\C/C=C\CCCCCCCC(=O)N(CCCN1CCCC1)C(CCCCCCCCCCC)C(=O)NCCCCCCCCCCCCCC (stereo not shown) [Compound A22] | C (C: ≥0.1 and <1)
 |  |  |  | CCCCCCCCC(C(=O)NCCCCCCCCCC(=O)OC(CCCCCC)CCCCCC)N(CCCCN1CCN(CCCN(C(=O)CCCCCCCCCC(=O)OC(CCCCCC)CCCCCC)C(CCCCCCCC)C(=O)NCCCCCCCCCC(=O)OC(CCCCCC)CCCCCC)CC1)C(=O)CCCCCCCCCOC(=O)C(CCCCCC)CCCCCC (stereo not shown) [Compound D3] | C (C: ≥0.1 and <1)
 |  |  |  | CCCCC/C=C\C/C=C\CCCCCCCCNC(=O)C(CCCCCCCC)N(CCCCCCCC/C=C\C/C=C\CCCCC)C(=O)CCCN1CCCC1 (stereo not shown) [Compound C4] | B (B: ≥1 and <2)
 |  |  |  | CCCCC/C=C\C/C=C\CCCCCCCCNC(=O)C(CCCCCCCC)N(CCCCCCCC/C=C\C/C=C\CCCCC)C(=O)CCCN(C)C (stereo not shown) [Compound C2] | B (B: ≥1 and <2)
 |  |  |  | CCCCCCCCNC(=O)C(CCCCCCCC)N(CC1CCCN(C)C1)C(=O)CCCCCCC(=O)OC(CCCCCCCC)CCCCCCCC (stereo not shown) [Compound A39] | A (A: ≥2)
 |  |  |  | CCCCCCCCC(C(=O)NCCCCCCCCCC(=O)OC(CCCCCC)CCCCCC)N(CCN(C)CCN(C(=O)CCCCCCCCCC(=O)OC(CCCCCC)CCCCCC)C(CCCCCCCC)C(=O)NCCCCCCCCCC(=O)OC(CCCCCC)CCCCCC)C(=O)CCCCCCCCCC(=O)OC(CCCCCC)CCCCCC (stereo not shown) [Compound D6] | A (A: ≥2)
 |  |  |  | CCCCC/C=C\C/C=C\CCCCCCCCNC(=O)C(CCCCCCCC)N(CCCCCCCC/C=C\C/C=C\CCCCC)C(=O)CCCN(C)CCO (stereo not shown) [Compound C6] | D (D: <0.1.)
 |  |  |  | CCCCCCCCNC(=O)C(CCCCCCCC)N(CCCCN1CCCC1)C(=O)CCCCCCC(=O)OC(CCCCCCCC)CCCCCCCC (stereo not shown) [Compound A37] | B (B: ≥1 and <2)
 |  |  |  | CCCCCCCCC(CCCCCC)COC(=O)CCCCCNC(=O)C(CCCCC)N(CCCCN(C)C)C(=O)CCCCCC(=O)OCC(CCCCCC)CCCCCCCC (stereo not shown) [Compound A44] | B (B: ≥1 and <2)
 |  |  |  | CCCCC/C=C\C/C=C\CCCCCCCCNC(=O)C(CCCCCCCC)N(CCCCCCCC/C=C\C/C=C\CCCCC)C(=O)CCCN(CCO)CCO (stereo not shown) [Compound C7] | D (D: <0.1.)
 |  |  |  | CCCCCCCCC(C(=O)NCCCCCCCCCC(=O)OC(CCCC)CCCCCC)N(CCCN1CCCC1)C(=O)CCCCCCCCCC(=O)OC(CCCC)CCCCCC (stereo not shown) [Compound A3] | C (C: ≥0.1 and <1)
